Experimental data from a melting point compilation (Tetko et al.; mined from patent text by program, amines drawn as free bases though some values may be those of a salt).

Row | melting point [°C] | SMILES
1 | 131 to 132 | CCCCCCCCNC(=O)C=CSC(C(=O)c1ccccc1)C(=O)c1cccn1C (configuration not stated)
2 | 102 to 104 | O=C(O)Cc1cccc(OCc2ccccc2Cl)c1OCc1ccccc1Cl
3 | 216 to 220 | CSc1nc(-c2ccc(O)cc2)n(C)n1
4 | 114 to 115 | CCCNc1ncnc2c1ncn2C1CC(F)C(CO)O1 (configuration not stated)
5 | 78 to 81 | Cc1cc(-n2ncc(=O)[nH]c2=O)cc(Cl)c1Oc1ccc(O)c(S(=O)(=O)c2ccccc2)c1
6 | 51 to 52 | Cc1cc(OCc2ccccc2)ccc1CC#N
7 | 126 to 127 | CS(=O)(=O)c1ccc(C2=C(c3ccccc3)C(=O)C3(CCCCC3)O2)cc1
8 | 159 to 160 | Cc1nc(-c2ccc(Cl)cc2)sc1C(=O)N[C@H](C)[C@](O)(Cn1cncn1)c1ccc(F)cc1F
9 | 158 | CC(C)n1nc(-c2c(-c3ccccc3)nn3ccc(OCCN4C[C@@H](C)O[C@@H](C)C4)cc23)ccc1=O
10 | 85 to 88 | CC(C)(C=O)Oc1ccc(Cl)cc1C#N
11 | 58 to 60 | CCN(Cc1csc(C(C)C)n1)C(=O)N[C@H](C(=O)N[C@@H](Cc1ccccc1)C[C@H](O)[C@H](Cc1ccccc1)NC(=O)OCc1cncs1)C(C)C
12 | 78 to 82 | CCCCCCCCCCCCCCCc1c([N+](=O)[O-])cc([N+](=O)[O-])c(O)c1C(=O)O
13 | 226 to 229 | O=c1[nH]c(-c2ccc(CCCl)cc2)cs1
14 | 107 to 109 | Cc1oc2c(C)c(C)c(NCc3ccc(F)cc3)c(C)c2c1-c1ccc(F)cc1
15 | 243 to 245 | CN1C(C2CCCCC2)Nc2ccc(S(=O)(=O)N3CCOCC3)cc2S1(=O)=O (configuration not stated)
16 | 52 to 53 | CCN(CC)C(=O)c1ccccc1C1CC1c1ccccc1 (configuration not stated)
17 | 258 to 261 | Cn1cc(S(C)(=O)=O)c(=O)c2sccc21
18 | 158 to 160 | CN(C)N=C(CCC(=O)O)c1ccc(-c2ccc(Cl)cc2)cc1
19 | 253 to 256 | CC1(C)OC(=O)Nc2ccc(-c3ccc(CC#N)c(F)c3)cc21
20 | 201 to 204 | O=C(CC(F)(F)F)Nc1c(C(=O)c2ccccc2)[nH]c2cc(Cl)ccc12
21 | 259 to 261 | CCOC(=O)c1nnc2ccc(C#N)cc2c1O
22 | 225 to 227 | CC(=O)N1CC(C)(C)c2cc3nc(-c4ccccc4)[nH]c3cc21
23 | 151 to 152 | CCOC(=O)c1c(C)cc2nc(CO)n(-c3ccccc3Cl)c(=O)c2c1C
24 | 124 | c1ccc(C2NCCc3ccccc32)nc1 (racemic)

Row | melting point [°C] | SMILES
25 | 138 to 139 | CNC(=O)c1cccc(C(O)c2ccc(F)cc2)c1 (configuration not stated)
26 | 142 | Cc1ccc(S(=O)(=O)Oc2ccc3nc(S(N)(=O)=O)sc3c2)cc1
27 | > 25 | CSc1cc2c(cc1C(F)(F)F)N(C(=O)Nc1ccc(-c3csc(-c4cccnc4)n3)cc1)CC2
28 | 96 to 99 | COc1ccc(C(c2ccc(OC)c(OCc3ccccc3)c2)n2cncn2)cc1OCc1ccccc1
29 | 204 to 205 | COc1ccc2nc(-n3nc4c(c3O)-c3ccccc3CC4)sc2c1
30 | 115 to 118 | O=[N+]([O-])c1cc(Cc2ccc[nH]2)cc(O)c1O
31 | 101 | COc1cccc(Oc2ccc(C(=O)N(C(C)C)C3CCCCC3)cc2)c1
32 | 151 | OC1(c2ccc(Cl)c(C(F)(F)F)c2)CCN(CCCc2nnc3n2CCCCC3)CC1
33 | 133 to 135 | CCOC(=O)c1ccc(NCCOc2cccc3c2CCCC3)cc1
34 | 196 to 197 | ON=C(c1ccccc1OCc1ccc(Cl)cc1)n1ccnc1
35 | 125 to 127 | CCCCCC(C)N(Cc1ccc(OCCC(C)C)cc1)C(Nc1ccc(OC)cc1OC)=C1C(=O)COC1=O (configuration not stated)
36 | 87 to 89 | CC(=O)OCC1CC(OC(C)=O)C(n2cc(C(Cl)=CI)c(=O)[nH]c2=O)O1 (configuration not stated)
37 | 123 to 125 | OCC1OC(n2ccnn2)C(O)C1O (configuration not stated)
38 | 158 to 159 | COc1ccc(CNc2cc(C(c3cc(F)ccc3F)S(=O)(=O)c3ccc(F)cc3)c(Cl)cn2)cc1OC (configuration not stated)
39 | 80 | O=S(CCCCCCOc1ccc(C2=C(c3ccccc3)CCCc3cc(O)ccc32)cc1)Cc1ccccn1 (configuration not stated)
40 | 145 to 158 | O=c1n(CCO)c2ccccc2n1CCO
41 | 92 | CC#CCOc1ccc(S(=O)C(C(=O)NO)c2ccc(Cl)cc2)cc1 (configuration not stated)
42 | 146 to 148 | CCc1noc(C)c1-c1[nH]c2ccccc2c1C(=O)CCN(C)C
43 | 116 to 120 | COc1cc(Nc2c(C#N)cnc3cc(OCCCN4CCN(C)CC4)c(OC)cc23)c(Cl)cc1Cl
44 | 189 to 191 | CC1CCN(Cc2ccc(COc3cccc4c3CN(C3CCC(=O)NC3=O)C4=O)cc2)CC1 (configuration not stated)
45 | 270 to 275 | N#Cc1ccc(-c2cc3ccc(C#N)cc3[nH]2)cc1
46 | 163 to 172 | CCOCn1c(-c2ccc(Cl)cc2)c(C(N)=O)c(Br)c1C(F)(F)F
47 | 202 to 204 | CC(C#N)=C1CCN(c2ccc(N3C[C@H](CNC(=O)C(Cl)Cl)OC3=O)cc2F)CC1
48 | 122 to 123 | COc1ccc(C2CCN(C(=O)CC(=O)O)CC2)cc1OC1CCCC1

Row | melting point [°C] | SMILES
49 | 239 to 241 | Nc1nc2ccccc2c2c1nc(CO)n2CC1CCOCC1
50 | 93 to 95.5 | CCOc1ccc(C(Cl)=NOS(C)(=O)=O)cc1
51 | 91 to 94 | COc1ccc(C(=O)n2c(C)c(Cc3cc(=O)n(-c4cccc(C(F)(F)F)c4)[nH]3)c3cc(OC)ccc32)cc1
52 | 133 to 135 | COc1cc(N)c2nc(Cl)cc(C)c2c1Oc1cccc(C(F)(F)F)c1
53 | 110 to 111 | OC(CCCc1cccnc1)COc1ccc(C=Cc2ccccc2)cc1 (configuration not stated)
54 | 159 to 162 | O=C(NS(=O)(=O)Cl)Oc1c(-c2ccccc2)cccc1-c1ccccc1
55 | 190 to 192 | CCOC(=O)c1cc2cc(NC(=O)OC(C)(C)C)ccc2[nH]1
56 | 143 | Cc1ccccc1C(CCC(=O)O)Oc1cc(OCc2ccsc2)ccc1C#N (configuration not stated)
57 | 160 to 161 | O=c1c2ccccc2nc(-c2cc(-c3ccccc3)c(N3CCOCC3)s2)n1-c1ccccc1Cl
58 | 172 to 174 | CCOC(=O)c1c(Cn2cncn2)nc2sc3cnccc3c2c1-c1ccc(OC)c(OC)c1
59 | 63 to 64 | CC(=NOc1cccc(C(F)(F)F)c1)c1cc(Cl)ccc1NS(=O)(=O)C(F)(F)F
60 | 215 to 216 | NC(=O)c1ccc(C(O)c2c(O)c(=O)ccn2CCO)cc1 (configuration not stated)
61 | 204 to 210 | Cc1cccc(Cl)c1C(=O)N[C@@H](Cc1ccc(-c2cccn(C)c2=O)cc1)C(=O)O
62 | 89 to 91 | CN1CCN(S(=O)(=O)c2ccc(N3CCC(NC[C@H](O)c4ccc(O)c(NS(C)(=O)=O)c4)CC3)cc2)CC1
63 | 230 to 231 | Cc1nc(-c2cccnc2)sc1-c1ccnc(Nc2ccc(N3CCOCC3)c(Cl)c2)n1
64 | 130 to 131 | CC(=O)OC1(C)CCC2C(C)(C)CCCC2(C)C1CCC(C)(O)C1CO1 (configuration not stated)
65 | 241 to 243 | Oc1ccc2nc(-c3ccc(O)c(C45CC6CC(CC(C6)C4)C5)c3)[nH]c2c1
66 | 233 to 236 | CN(C)c1ccc2nnc(-c3ncc([N+](=O)[O-])n3C)n2n1
67 | 233 to 236 | O=C(O)c1c(F)cccc1NC1CCN(Cc2ccccc2)CC1
68 | 187 to 189 | Cc1cccc(C(CCC(=O)O)Oc2cc(OCc3cccnc3)ccc2C#N)c1C (racemic)
69 | 306 to 308 | Cc1cc2nc(C)c(=O)[nH]c2cc1C
70 | 206 to 207 | O=C(O)c1nc2ccc(O)cc2[nH]1
71 | 202 to 203 | CSc1nnc(-c2ccc3ncn(-c4ccc(OC(F)F)cc4)c3c2)o1
72 | 108 to 109 | CC(C)[C@H]1OC[C@H](Nc2nnc(Cc3ccc(O)nc3)c3ccccc23)CO1

Row | melting point [°C] | SMILES
73 | 174 to 176 | CCOCc1nc2c(N)nc3cc(N4CCOC4=O)cnc3c2n1CC(C)C
74 | 113 to 114 | CNCCc1ccc(-c2ccc(OC(C)C(O)CCc3cccnc3)cc2)cc1 (configuration not stated)
75 | 111 to 112 | CCOC(=O)C(C#N)NC(=O)OCc1ccccc1 (configuration not stated)
76 | 169 to 170 | CCOC(=O)C1=C(C)NC(C)=C(C(=O)OCC2CC2)C1c1cccc([N+](=O)[O-])c1 (configuration not stated)
77 | 226 to 227 | CC(C)(c1ccccc1)N(C(N)=O)C(C)(C)c1ccccc1
78 | 149 to 150 | COc1ccc2cc(C(=O)C(C)N3CCN(Cc4ccccc4)CC3)ccc2c1 (configuration not stated)
79 | 273 to 276 | COCc1nc(-c2ccc(-c3cnc4[nH]c(=O)n(CC5CCOCC5)c4n3)cc2)n[nH]1
80 | 126 to 127 | CCNC(=O)[C@H](C)C[C@H](O)[C@H](CC1CCCCC1)NC(=O)OC(C)(C)C
81 | 278 to 280 | O=C1Nc2cccnc2Nc2ccccc21
82 | 204 to 205 | O=C(Nc1cccnc1)N1CCc2ccc(Cl)cc21
83 | 207 to 208 | CC(C)(C)NC(=O)c1cc(C(C)(C)C)c(O)c(C(C)(C)C)c1
84 | 256 | Cc1c(C(=O)Nc2ccc(N3CCC(N4CCSCC4)CC3)c(C#N)c2)cnn1-c1ccc(Cl)cc1
85 | 63 to 65 | CCN(CC)C(=O)C(=NNc1ccccc1)C(C)=O
86 | 145 to 147 | C#CCN1C(=O)CCC1C(N)=O (configuration not stated)
87 | 141 | CCCC(CCNC(=O)CC#N)NC(=O)CC#N (configuration not stated)
88 | 65 to 66 | CCOc1ccc(CCCCCCC(=O)O)cc1
89 | 105 | CCCCc1ccc(CNC(=O)OC(C)(C)C)c(=O)n1Cc1ccc(-c2ccccc2-c2nnn[nH]2)cc1
90 | 128 to 131 | O=C(C[C@@H](O)C(=O)O)c1ccccc1
91 | 76 to 77.5 | CCCCCS(=O)(=O)NC(=O)CCc1ccc(OCCOCCOC)cc1Oc1ncc(C(F)(F)F)cc1Cl
92 | 94 to 95 | Cc1cc(C(=S)Cl)c(Cl)cc1Cl
93 | 256 | Cc1ccc(N2C(=O)C(O)=C(C(=O)c3ccc(C(C)C)cc3)C2c2ccc(OCCN3CCOCC3)cc2)nn1 (configuration not stated)

Row | SMILES | melting point [°C]
94 | O=C(CC1CCC2(CC1)OOC1(CCCCCCCCCCC1)OO2)N1CCS(=O)(=O)CC1 | 170 to 172
95 | O=C(O)c1nc(-c2ccccc2)n2c1CN=C(c1ccccc1F)c1cc(Cl)ccc1-2 | 267 to 269
96 | COc1ccc(/C=C\c2ccc(OC)c(OC)c2OC)cc1 | 55 to 57
97 | CNC(=O)N1N=C(c2ccc([N+](=O)[O-])cc2)c2cc(Br)ccc2CC1C (configuration not stated) | 197 to 200
